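A five-concentration, 48-hour dose response in 96-well plates underlies each endpoint, interpolated linearly between surrounding concentrations. Here, GI50 denotes the concentration required for 50% inhibition of growth.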 Activity calls are given as the source filed them. Rule as the data show it: active = GI50 up to about 1.1 µM and inactive = higher.
How the values were obtained:
Assay in all cases: growth of human tumour cells (NCI), 48 h
BT-549 = tested on: BT-549
HCT-15 = tested on: HCT-15
MCF7 = tested on: MCF7
MOLT-4 = tested on: MOLT-4
NCI-H522 = tested on: NCI-H522
RPMI-8226 = tested on: RPMI-8226
SN12C = tested on: SN12C
T47D = tested on: T47D
U-251 = tested on: U-251
UO-31 = tested on: UO-31
786-0 = tested on: 786-0
A549 = tested on: A549
CAKI-1 = tested on: CAKI-1
COLO 205 = tested on: COLO 205
IGROV-1 = tested on: IGROV-1
NCI/ADR-RES = tested on: NCI/ADR-RES
OVCAR-8 = tested on: OVCAR-8
PC-3 = tested on: PC-3
SW-620 = tested on: SW-620
HOP-92 = tested on: HOP-92

Compound | GI50 (BT-549) | GI50 (HCT-15) [µM] | GI50 (MCF7) | GI50 (MOLT-4) | GI50 (NCI-H522) | GI50 (RPMI-8226) | GI50 (SN12C) | GI50 (T47D) | GI50 (U-251) | GI50 (UO-31) | GI50 (786-0) | GI50 (A549) | GI50 (CAKI-1) | GI50 (COLO 205) | GI50 (IGROV-1) | GI50 (NCI/ADR-RES) | GI50 (OVCAR-8) | GI50 (PC-3) | GI50 (SW-620) | GI50 (HOP-92)
CCC(=O)NC(OCC1(CC)COC1)(C(F)(F)F)C(F)(F)F | > 100 µM (inactive) | > 100 | > 100 µM (inactive) | > 100 µM (inactive) | > 100 µM (inactive) | > 100 µM (inactive) | > 100 µM (inactive) | > 100 µM (inactive) | > 100 µM (inactive) | > 100 µM (inactive) |  |  |  |  |  |  |  |  |  | 
C1#Cc2ccccc2OCCOc2ccccc2C#Cc2ccccc2OCCOc2ccccc21 | 16.6 µM (inactive) | > 100 | > 100 µM (inactive) | 16.2 µM (inactive) | 20.7 µM (inactive) | 16.4 µM (inactive) | 30.7 µM (inactive) | 49.5 µM (inactive) | 12.5 µM (inactive) | 46.7 µM (inactive) | 10.3 µM (inactive) | 25.2 µM (inactive) | 17.7 µM (inactive) | 30.1 µM (inactive) | 15.6 µM (inactive) | 29.4 µM (inactive) | 13.8 µM (inactive) | 52 µM (inactive) | 34 µM (inactive) | 
S=c1nc(Nc2ccc(Br)cc2)c2c3c(sc2[nH]1)CN(N1CCc2c(sc4[nH]c(=S)nc(Nc5ccc(Br)cc5)c24)C1)CC3 | > 50 µM (inactive) | 22.5 | 20.3 µM (inactive) | 12.8 µM (inactive) | 12.8 µM (inactive) | 19.2 µM (inactive) | 28.4 µM (inactive) | 8.79 µM (inactive) | 9.42 µM (inactive) | 20.1 µM (inactive) | 8.13 µM (inactive) | 23 µM (inactive) | > 50 µM (inactive) | 23.6 µM (inactive) | 26.2 µM (inactive) | > 50 µM (inactive) | > 50 µM (inactive) | 38.8 µM (inactive) | 16.4 µM (inactive) | 
Cc1nc(Nc2nc3ccccc3[nH]2)[nH]c(=O)c1CCO | > 100 µM (inactive) | 61.9 | > 100 µM (inactive) | > 100 µM (inactive) | > 100 µM (inactive) |  | > 91.6 µM (inactive) | 7.6 µM (inactive) | 59.8 µM (inactive) | 46.8 µM (inactive) | 65.6 µM (inactive) | > 100 µM (inactive) | 53.5 µM (inactive) | > 59.8 µM (inactive) | 12.3 µM (inactive) | > 100 µM (inactive) | > 53.2 µM (inactive) | > 100 µM (inactive) | 99.8 µM (inactive) | 55.3 µM (inactive)
CC(C)CCCC(C)[C@H]1CC[C@H]2[C@@H]3CC[C@H]4C[C@@H](CCC=C(c5cc(Cl)c(O)c(C(=O)OC(C)(C)C)c5)c5cc(Cl)c(O)c(C(=O)OC(C)(C)C)c5)CC[C@]4(C)[C@H]3CC[C@]12C (some centres not stated) | > 50 µM (inactive) | > 50 | > 50 µM (inactive) | > 50 µM (inactive) |  | > 50 µM (inactive) | > 50 µM (inactive) | > 50 µM (inactive) | > 50 µM (inactive) |  | > 50 µM (inactive) | > 50 µM (inactive) | > 50 µM (inactive) | > 50 µM (inactive) | > 50 µM (inactive) | > 50 µM (inactive) |  | > 50 µM (inactive) | > 50 µM (inactive) | 
CCN(CC)CCNCc1cc(Cl)cc2c1OCOC2 |  | > 10 | > 10 µM (inactive) | > 10 µM (inactive) | > 10 µM (inactive) | > 10 µM (inactive) | > 10 µM (inactive) | > 10 µM (inactive) | > 10 µM (inactive) | > 10 µM (inactive) |  | > 10 µM (inactive) | > 10 µM (inactive) | > 10 µM (inactive) | > 10 µM (inactive) | > 10 µM (inactive) | > 10 µM (inactive) | > 10 µM (inactive) | > 10 µM (inactive) | 
C=CCN1CN(c2ccccc2)C2(CCN(CCCC3(c4ccc(F)cc4)OCCO3)CC2)C1=O |  | 12.5 | 14.7 µM (inactive) | 11 µM (inactive) | 18.9 µM (inactive) | 12.4 µM (inactive) | 17.7 µM (inactive) | 11.6 µM (inactive) | 15.3 µM (inactive) | 9.93 µM (inactive) | 17.7 µM (inactive) | 21.2 µM (inactive) | 26.7 µM (inactive) | 15.3 µM (inactive) | 19.9 µM (inactive) | 14.4 µM (inactive) | 16.1 µM (inactive) | 16.2 µM (inactive) | 18.7 µM (inactive) | 
CC(C)(C)NC(=S)N/N=C/c1ccccn1 | 18.3 µM (inactive) | < 0.0159 | < 0.01 µM (active) | < 0.01 µM (active) |  | < 0.0106 µM (active) | 3.16 µM (inactive) | < 0.01 µM (active) | 0.357 µM (active) | 0.259 µM (active) | 0.0545 µM (active) | 2.13 µM (inactive) | < 0.0118 µM (active) | < 0.01 µM (active) | 0.0281 µM (active) | 0.0343 µM (active) | 0.612 µM (active) | < 0.0164 µM (active) | < 0.0113 µM (active) | 2.65 µM (inactive)
